Data reported in patent publication US9464063B2, “Benzo [B] [1,4] oxazin derivatives as calcium sensing receptor modulators” (LUPIN ATLANTIS HOLDINGS SA, priority 2011, dated 2016).
Structures can show the parent of a compound that is named as a salt.

The compounds below were run against T1, Calcium sensing receptor (hCaSR) (Homo sapiens, UniProt P41180) (assay: In-vitro assay of calcimimetics through modulation of calcium sensing receptor: increase in intracellular calcium [Ca2+]i, FLIPR). Settings: stably transfected HEK293 cells expressing hCaSR; Fluo4NW dye; 0.3 mM CaCl2; 8-point assay; read-out: EC50 Range.
T1 construct: expressed in transfected cells
T1 sequence (P41180 20-1078): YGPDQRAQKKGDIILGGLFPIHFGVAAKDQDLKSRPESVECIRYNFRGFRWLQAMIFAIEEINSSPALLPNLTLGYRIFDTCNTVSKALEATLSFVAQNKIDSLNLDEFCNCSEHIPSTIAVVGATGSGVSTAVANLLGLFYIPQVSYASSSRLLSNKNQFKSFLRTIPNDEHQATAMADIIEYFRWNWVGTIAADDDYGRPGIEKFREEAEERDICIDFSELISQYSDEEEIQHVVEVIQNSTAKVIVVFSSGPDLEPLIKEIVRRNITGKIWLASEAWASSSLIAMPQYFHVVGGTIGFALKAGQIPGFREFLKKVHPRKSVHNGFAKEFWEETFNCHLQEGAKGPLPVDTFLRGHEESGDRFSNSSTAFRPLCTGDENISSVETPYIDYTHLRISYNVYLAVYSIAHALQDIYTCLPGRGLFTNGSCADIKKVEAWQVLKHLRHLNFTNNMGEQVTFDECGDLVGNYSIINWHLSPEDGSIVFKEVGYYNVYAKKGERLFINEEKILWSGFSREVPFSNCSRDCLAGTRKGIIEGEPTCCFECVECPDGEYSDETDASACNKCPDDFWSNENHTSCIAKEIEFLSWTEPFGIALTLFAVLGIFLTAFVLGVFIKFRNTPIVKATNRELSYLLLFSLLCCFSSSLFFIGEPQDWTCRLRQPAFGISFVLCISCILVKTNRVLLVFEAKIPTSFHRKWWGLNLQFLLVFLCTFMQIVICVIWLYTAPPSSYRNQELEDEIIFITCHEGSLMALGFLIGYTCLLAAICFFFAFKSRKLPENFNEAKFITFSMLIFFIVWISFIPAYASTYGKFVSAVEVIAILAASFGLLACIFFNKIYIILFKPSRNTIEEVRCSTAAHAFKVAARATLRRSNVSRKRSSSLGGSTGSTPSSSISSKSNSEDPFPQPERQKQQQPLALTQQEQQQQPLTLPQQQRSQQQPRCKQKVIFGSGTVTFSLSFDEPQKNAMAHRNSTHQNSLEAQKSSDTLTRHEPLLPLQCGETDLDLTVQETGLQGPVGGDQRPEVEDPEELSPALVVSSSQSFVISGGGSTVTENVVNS
Format: cell-based
Experimental: In-Vitro Assay Method of Calcimemtics Through Modulation of Calcium Sensing Receptor (CaSR):
The ability of the compounds to modulate Calcium sensing receptor is determined by measuring an increase in intracellular calcium [Ca^2+]i. Stably transfected HEK293 cells expressing hCaSR_pTriEx-3 hygro vector are developed. Cells are grown overnight on a 96-well plate to 80% confluency in Ham's F12 containing 20% FBS at 37° C., 5% CO2. Subsequently, cells are washed extensively with 20 mM HEPES buffer containing 126 mM NaCl, 1 mM MgCl2 and 4 mM KCl to remove serum components that might interfere with the assay. Cells are loaded with calcium sensing Fluo4NW dye in HEPES base buffer containing 0.1% BSA and 1 mg/ml glucose for 30 minutes to measure changes in intracellular calcium. The activities of the compounds are measured in FLIPR using 0.3 mM CaCl2 in 20 mM HEPES base buffer. The effectiveness of the compound to modulate receptor activity is determined by calculating the EC50 responses for that compound in an 8-point assay and plotted using GraphPad Prism 5.

EC50 [nM]	Structure (SMILES)
< 20	C[C@@H](NCCC1CN(c2ccc(OCC(=O)O)cc2)c2cc(F)ccc2O1)c1cccc2ccccc12 (single isomer, unassigned) [Example 168a]
50 to 200	Cc1ccc(N2CC(CN[C@H](C)c3cccc4ccccc34)Oc3ccccc32)cc1OC(C)(C)C(=O)O (single isomer, unassigned) [Example 77a, hydrochloride]
< 20	C[C@@H](NCCC1CN(c2cccc(OCC(=O)O)c2)c2ccccc2O1)c1cccc2ccccc12 (stereo partly drawn) [Example 138a, 2-(3-(2-(2-(((R)-1-(Naphthalen-1-yl)ethyl)amino)ethyl)-2H-benzo[b][1,4]oxazin-4(3H)-yl)phenoxy)aceticacid hydrochloride]
< 20	C[C@@H](NCCC1CN(c2ccc(OCC(=O)O)cc2)c2ccc(F)cc2O1)c1cccc2ccccc12 (single isomer, unassigned) [Example 161a, hydrochloride]
50 to 200	Cc1cc(N2CC(CCN[C@H](C)c3cccc4ccccc34)Oc3ccccc32)ccc1C(=O)O (some centres unmarked) [Example 134a, 2-Melhyl-4-(2-(2-(((R-1-(naphthalen-1-yl)ethyl)amino)ethyl)-2H-benzo[b] [1,4]oxazin-4(3H)-yl)benzoic acid hydrochloride]
50 to 200	Cc1ccc(N2CC(C)(CN[C@H](C)c3cccc4ccccc34)Oc3ccccc32)cc1C(=O)O (single isomer, unassigned) [Example 86a, hydrochloride]
20 to 50	Cc1ccc(N2CC(CCN[C@H](C)c3cccc4ccccc34)Oc3c(F)cccc32)cc1C(=O)O (single isomer, unassigned) [Example 159a, hydrochloride]
< 20	C[C@@H](NCCC1CN(c2ccc(OCC(=O)O)cc2)c2c(F)cccc2O1)c1cccc2ccccc12 (single isomer, unassigned) [Example 172a, hydrochloride]
< 20	Cc1ccc(N2CC(CN[C@H](C)c3cccc4ccccc34)Oc3ccccc32)cc1C(=O)NCC(=O)O (single isomer, unassigned) [Example 79b, hydrochloride]
< 20	C[C@@H](NCCC1CN(c2cccc(OCC(=O)O)c2)c2cc(F)ccc2O1)c1cccc2ccccc12 (single isomer, unassigned) [Example 169a, hydrochloride]
< 20	Cc1ccc(N2CC(CCN[C@H](C)c3cccc4ccccc34)Oc3ccccc32)cc1C(=O)O (single isomer, unassigned) [Example 133b, hydrochloride]
< 20	Cc1cc(N2CC(CCN[C@H](C)c3cccc4ccccc34)Oc3ccccc32)ccc1OCC(=O)O (stereo partly drawn) [Example 144a, 2-(2-Methyl-4-(2-(2-(((R)-1-(naphlhalen-1-yl)ethyl)amino)ethyl)-2H-benzo[b] [1,4]oxazin-4(3H)-yl)phenoxy)aceticacid hydrochloride]
20 to 50	Cc1ccc(N2C(=O)C(CN[C@H](C)c3cccc4ccccc34)Oc3ccccc32)cc1C(=O)O (single isomer, unassigned) [Example 87b, hydrochloride]
< 20	COc1ccc(N2CC(CCN[C@H](C)c3cccc4ccccc34)Oc3ccccc32)cc1C(=O)O (stereo partly drawn) [Example 141a, 2-Methoxy-5-(2-(2-(((R)-1-(naphthalen-1-yl)ethyl)amino)ethyl)-2H-benzo[b] [1,4]oxazin-4(3H)-yl) benzoic acid hydrochloride]
< 20	Cc1ccc(CN2CC(CCN[C@H](C)c3cccc4ccccc34)Oc3ccccc32)cc1C(=O)O (stereo partly drawn) [Example 177a, 2-Methyl-5-((2-(2-(((R)-1-(naphthalen-1-yl)ethyl)amino)ethyl)-2H-benzo[b][1,4]oxazin-4(3H)-yl)methyl)benzoic acid hydrochloride]
50 to 200	C[C@@H](NCCC1CN(c2ccc(CC(=O)O)cc2)c2ccccc2O1)c1cccc2ccccc12 (stereo partly drawn) [Example 143a, 2-(4-(2-(2-(((R)-1-(Naphthalen-1-yl)ethyl)amino)ethyl)-2H-benzo[b][1,4]oxazin-4(3H)-yl)phenyl) acetic acid hydrochloride]
< 20	Cc1ccc(N2CC(CCN[C@H](C)c3cccc4ccccc34)Oc3ccccc32)c(C)c1C(=O)O (stereo partly drawn) [Example 148a, 2,6-Dimethyl-3-(2-(2-(((R)-1-(naphthalen-1-yl)ethyl)amino)ethyl)-2H-benzo[b] [1,4]oxazin-4(3H)-yl) benzoic acid hydrochloride]
< 20	C[C@@H](NCCC1CN(c2cccc(C(=O)O)c2)c2cccc(F)c2O1)c1cccc2ccccc12 (single isomer, unassigned) [Example 160a, hydrochloride]

More lines, now with the values behind:

Structure (SMILES)	EC50 [nM]
C[C@@H](NCC1CN(c2cccc(CC(=O)O)c2)c2ccccc2O1)c1cccc2ccccc12 (stereo partly drawn) [Example 69, 2-(3-(2-((((R)-1-(Naphthalen-1-yl)ethyl)amino)methyl)-2H-benzo [b][1,4]oxazin-4(3H)-yl)phenyl)acetic acid hydrochloride]	50 to 200
COC(=O)c1ccc(N2CC(CN[C@H](C)c3cccc4ccccc34)Oc3ccccc32)cc1 (single isomer, unassigned) [Example 2a, hydrochloride]	50 to 200
Cc1cc(C(=O)O)cc(N2CC(CN[C@H](C)c3cccc4ccccc34)Oc3ccccc32)c1 (single isomer, unassigned) [Example 62a, hydrochloride]	50 to 200
COC(=O)c1ccc(N2CC(CN[C@H](C)c3cccc4ccccc34)Oc3ccccc32)cc1 (single isomer, unassigned) [Example 2b, hydrochloride]	20 to 50
C[C@@H](NCC1CN(c2ccc(CCC(=O)O)cc2)c2ccccc2O1)c1cccc2ccccc12 (stereo partly drawn) [Example 48, 3-(4-(2-((((R)-1-(naphthalen-1-yl)ethyl)amino)methyl)-2H-benzo [b][1,4]oxazin-4(3H)-yl)phenyl)propanoic acid]	50 to 200
C[C@@H](NCC1CN(c2ccc(Cl)c(C(=O)O)c2)c2ccccc2O1)c1cccc2ccccc12 (single isomer, unassigned) [Example 75b, hydrochloride]	50 to 200
COc1ccc(N2CC(CN[C@H](C)c3cccc4ccccc34)Oc3ccccc32)cc1C(=O)O (single isomer, unassigned) [Example 67b, hydrochloride]	50 to 200
COC(=O)c1cc(N2CC(CN[C@H](C)c3cccc4ccccc34)Oc3ccccc32)ccc1C (single isomer, unassigned) [Example 31a]	20 to 50
C[C@@H](NCC1CN(c2cccc(CCC(=O)O)c2)c2ccccc2O1)c1cccc2ccccc12 (single isomer, unassigned) [Example 68b, hydrochloride]	50 to 200
Cc1c(C(=O)O)cccc1N1CC(CN[C@H](C)c2cccc3ccccc23)Oc2ccccc21 (single isomer, unassigned) [Example 58a, hydrochloride]	20 to 50
Cc1ccc(N2CC(CN[C@H](C)c3cccc4ccccc34)Oc3ccccc32)cc1OCC(=O)O (single isomer, unassigned) [Example 76a, hydrochloride]	< 20
C[C@@H](NCC1CN(c2ccc(C(F)(F)F)c(C(=O)O)c2)c2ccccc2O1)c1cccc2ccccc12 (single isomer, unassigned) [Example 60a, hydrochloride]	20 to 50
C[C@@H](NCC1CN(c2cccc(C(=O)O)c2)c2ccccc2O1)c1cccc2ccccc12 (stereo partly drawn) [Example 41, 3-(2-((((R)-1-(Naphthalen-1-yl)ethyl)amino)methyl)-2H-benzo[b][1,4]oxazin-4(3H)-yl)benzoic acid hydrochloride]	20 to 50
CCOC(=O)c1c(C)ccc(N2CC(CN[C@H](C)c3cccc4ccccc34)Oc3ccccc32)c1C (single isomer, unassigned) [Example 24b]	20 to 50
